The values that follow come from patent US12209089B1, “Pyrimido[1′,6′: 1,5]pyrazolo[4,3-c] [2,7] naphthyridines as CK2 inhibitors” (KING FAISAL UNIVERSITY, priority 2024, dated 2025).

The subject of one test is H1299 (lung). As to the kind of experiment: In vitro cytotoxic activity (MTT) assay, H1299. In kind it is cell-based. The following applies: Homo sapiens, NCI-H1299; H1299 (lung) cells, 96 hours exposure; read-out: Cytotoxicity activity IC50 (50% inhibition of cell proliferation). How it is done: (§1) Compounds 1-16 were screened for their in vitro cytotoxic activity utilizing a 3-(4,5-dimethyl-thiazol-2-yl)-2,5-diphenyltetrazolium bromide (MTT) assay against selected cancer human cell lines consisting of PC3 (prostate), HCT116 (colon), A375 (melanoma), H1299 (lung), MIAPaCa-2 (pancreas), HL60 (leukemia), MCF7 (breast), MDA-MB-231 (breast) (T. Mosmann, J. Immunol. Meth., 1983, 65, 55-63). The cells were cultured at 37° C. in RMPI1640 medium supplemented with 10% fetal bovine serum, 50 IU/mL penicillin, and 50 μg/mL streptomycin in a 5% CO2 incubator. All cells were sub-cultured 3 times/week by trypsinisation. Viable cells were seeded and allowed to adhere for 12 hours before a test drug was added in 96-well plates at an initial density of 1.0×10^5 cells/mL. Tumor cell lines were separately exposed to various concentrations of the tested compounds followed by incubation at a temperature of 37° C. during 96 hours inside a medium of fresh RMPI 1640. Cells were subsequently incubated at 37° C. using MTT at 0.5 mg/mL during 4 hours. After removal of supernatant, formazan crystals were dissolved in isopropanol and the optical density was measured at 570 nm. CX-4945 was used as a positive control.

Another test relates to MCF7 (breast). Description: In vitro cytotoxic activity (MTT) assay, MCF7. Format: cell-based. The following applies: Homo sapiens; MCF7 (breast) cells, 96 hours exposure; read-out: Cytotoxicity activity IC50 (50% inhibition of cell proliferation). How it is done:
as §1

The next test deals with A375 (melanoma). Description: In vitro cytotoxic activity (MTT) assay, A375. Format: cell-based. The following applies: Homo sapiens, A-375; A375 (melanoma) cells, 96 hours exposure; read-out: Cytotoxicity activity IC50 (50% inhibition of cell proliferation). How it is done: as §1
The next test relates to PC3 (prostate). Description: In vitro cytotoxic activity (MTT) assay, PC3. To be noted: Homo sapiens, Prostate cell; PC3 (prostate) cells, 96 hours exposure; read-out: Cytotoxicity activity IC50 (50% inhibition of cell proliferation). In kind it is cell-based. How it is done: as §1
Another test relates to MDA-MB-231 (breast). Description: In vitro cytotoxic activity (MTT) assay, MDA-MB-231. Format: cell-based. The following applies: Homo sapiens; MDA-MB-231 (breast) cells, 96 hours exposure; read-out: Cytotoxicity activity IC50 (50% inhibition of cell proliferation). How it is done: as §1
The test system of another test is HCT116 (colon). As to the kind of experiment: In vitro cytotoxic activity (MTT) assay, HCT116. Format: cell-based. The following applies: Homo sapiens, HCT-116; HCT116 (colon) cells, 96 hours exposure; read-out: Cytotoxicity activity IC50 (50% inhibition of cell proliferation). How it is done: as §1
The next test deals with MIAPaCa-2 (pancreas). Description: In vitro cytotoxic activity (MTT) assay, MIAPaCa-2. To be noted: Homo sapiens, MIA PaCa-2; MIAPaCa-2 (pancreas) cells, 96 hours exposure; read-out: Cytotoxicity activity IC50 (50% inhibition of cell proliferation). In kind it is cell-based. How it is done:
as §1

For test [1], the target named is T1, recombinant human CK2 (holoenzyme) (Homo sapiens, UniProt P68400).
T1 construct: purchased Millipore
T1 sequence (P68400 whole entry): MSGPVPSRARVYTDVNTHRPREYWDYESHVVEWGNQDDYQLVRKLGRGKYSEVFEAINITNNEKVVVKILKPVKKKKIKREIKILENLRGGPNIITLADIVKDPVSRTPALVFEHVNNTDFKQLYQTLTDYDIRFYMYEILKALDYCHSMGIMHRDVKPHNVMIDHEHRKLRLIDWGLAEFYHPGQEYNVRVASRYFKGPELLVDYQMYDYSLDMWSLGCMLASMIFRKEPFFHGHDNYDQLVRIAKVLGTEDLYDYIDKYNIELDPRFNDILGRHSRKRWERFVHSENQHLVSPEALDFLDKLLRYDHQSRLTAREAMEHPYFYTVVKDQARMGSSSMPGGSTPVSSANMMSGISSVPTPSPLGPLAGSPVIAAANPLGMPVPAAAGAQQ
T1 sequence (P67870 whole entry partner): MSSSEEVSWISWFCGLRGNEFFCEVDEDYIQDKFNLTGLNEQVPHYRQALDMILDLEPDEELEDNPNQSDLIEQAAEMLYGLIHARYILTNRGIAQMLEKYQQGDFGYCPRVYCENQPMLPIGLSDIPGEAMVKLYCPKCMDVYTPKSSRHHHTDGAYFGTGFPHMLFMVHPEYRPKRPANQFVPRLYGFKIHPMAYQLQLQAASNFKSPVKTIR
Description: CK2 Kinase Assay (33P-ATP, filter plate). Format: biochemical. The following applies: recombinant human CK2, 10 min at 30° C., eight concentrations; read-out: protein kinase CK2 IC50. How it is done: CK2 Kinase Assay was conducted using the protocol as described in Pierre F. et al; J. Med. Chem. 2011, 54, 635-654. The tested compounds in aqueous solution were added at a volume of 10 μL to a reaction mixture comprising 10 μL of assay dilution buffer (ADB; 20 mM MOPS, pH 7.2, 25 mM B-glycerol phosphate, 5 mM EGTA, 1 mM sodium orthovanadate, and 1 mM dithiothreitol), 10 μL of substrate peptide (RRRDDDSDDD, dissolved in ADB at a concentration of 1 mM), 10 μL of recombinant human CK2 (RRBB-holoenzyme, 25 ng dissolved in ADB; Millipore). Reactions were initiated by the addition of 10 μL of ATP solution (90% 75 mMMgCl2, 75 μM ATP (final ATP concentration: […]) dissolved in ADB; 10% [y-33P]ATP (stock 1mCi/100 μL; 3000 Ci/mmol (Perkin-Elmer) and maintained for 10 min at 30° C. The reactions were quenched with 100 μL of 0.75% phosphoric acid and then transferred to and filtered through a phosphor cellulose filter plate (Millipore). After washing each well five times with 0.75% phosphoric acid, the plate was dried under vacuum for 5 min and, following the addition of 15 μL of scintillation fluid to each well, the residual radioactivity was measured using a Wallac […] counter. The IC50 values were derived from eight concentrations of test inhibitors.

In another test the test system is HL60 (leukemia). As to the kind of experiment: In vitro cytotoxic activity (MTT) assay, HL60. In kind it is cell-based. The following applies: Homo sapiens, HL-60; HL60 (leukemia) cells, 96 hours exposure; read-out: Cytotoxicity activity IC50 (50% inhibition of cell proliferation). How it is done: as §1

For the molecule `Clc1cccc(Nc2nc3c(nn4cnccc34)c3ccncc23)c1` [Compound 1, N-(3-chlorophenyl)pyrimido[1′,6′: 1,5]pyrazolo[4,3-c][2,7]naphthyridin-5-amine], the IC50 was found to be 2300 nM in the test with H1299 (lung); 5300 nM with MCF7 (breast); 3600 nM with A375 (melanoma); 1400 nM in the test on PC3 (prostate); 4500 nM in the test with MDA-MB-231 (breast); 1200 nM with HCT116 (colon). For the same molecule, the IC50 is 1100 nM with MIAPaCa-2 (pancreas), 30 nM in test [1] and 4000 nM in the test on HL60 (leukemia).
